Source: PubChem BioAssay AID1963846 (Molecular Pharmacology Branch, DTP, NCI, 2024)

System: 454973-116-R2-J3-PDC complex spheroid viability
Assay: Anticancer human tumor 454973-116-R2-J3-PDC patient-derived pancreatic carcinoma cell line growth inhibition [POLQ]
Details: for IC50: curve of first compound; for viability, T/C: stronger effect = lower value
How it was run: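 Three-cell-type spheroids modelling solid tumor plus stroma served as the readout system; POL inhibitors were tested individually and in combination, concentration ranges set by clinical Cmax where known.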

[1] = second compound 0.0316 µM, first compound 0.0316 µM
[2] = second compound 0.0316 µM, first compound 0.1 µM
[3] = second compound 0.0316 µM, first compound 0.316 µM
[4] = second compound 0.0316 µM, first compound 1 µM
[5] = second compound 0.1 µM, first compound 0.0316 µM
[6] = second compound 0.1 µM, first compound 0.1 µM
[7] = second compound 0.1 µM, first compound 0.316 µM
[8] = second compound 0.1 µM, first compound 1 µM
[9] = second compound 0.316 µM, first compound 0.0316 µM
[10] = second compound 0.316 µM, first compound 0.1 µM
[11] = second compound 0.316 µM, first compound 0.316 µM
[12] = second compound 0.316 µM, first compound 1 µM
[13] = second compound 1 µM, first compound 0.0316 µM
[14] = second compound 1 µM, first compound 0.1 µM
[15] = second compound 1 µM, first compound 0.316 µM
[16] = second compound 1 µM, first compound 1 µM
[17] = second compound 3.16 µM, first compound 0.0316 µM
[18] = second compound 3.16 µM, first compound 0.1 µM
[19] = second compound 3.16 µM, first compound 0.316 µM
[20] = second compound 3.16 µM, first compound 1 µM
[21] = second compound 10 µM, first compound 0.0316 µM
[22] = second compound 10 µM, first compound 0.1 µM
[23] = second compound 10 µM, first compound 0.316 µM
[24] = second compound 10 µM, first compound 1 µM
[25] = second compound 0.0316 µM, first compound 3.16 µM
[26] = second compound 0.0316 µM, first compound 10 µM
[27] = second compound 0.1 µM, first compound 3.16 µM
[28] = second compound 0.1 µM, first compound 10 µM
[29] = second compound 0.316 µM, first compound 3.16 µM
[30] = second compound 0.316 µM, first compound 10 µM
[31] = second compound 1 µM, first compound 3.16 µM
[32] = second compound 1 µM, first compound 10 µM
[33] = second compound 3.16 µM, first compound 3.16 µM
[34] = second compound 3.16 µM, first compound 10 µM
[35] = second compound 10 µM, first compound 3.16 µM
[36] = second compound 10 µM, first compound 10 µM
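Further: spheroids exposed to drugs for seven days before measurement.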
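Wherever viability, T/C is given: percent viability relative to DMSO vehicle control wells taken as 100%.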

## C=CCn1c(=O)c2cnc(Nc3ccc(N4CCN(C)CC4)cc3)nc2n1-c1cccc(C(C)(C)O)n1 + COC1C(OC(N)=O)C(O)C(Oc2ccc3c(O)c(NC(=O)c4ccc(O)c(CC=C(C)C)c4)c(=O)oc3c2C)OC1(C)C
Second compound 0.0316 µM
  IC50: 0.548 µM
Second compound 0.1 µM
  IC50: 0.527 µM
Second compound 0.316 µM
  IC50: 0.535 µM
Second compound 1 µM
  IC50: 0.549 µM
Second compound 3.16 µM
  IC50: 0.596 µM
Second compound 10 µM
  IC50: 0.571 µM
Second compound 0.0316 µM, first compound 0.00316 µM
  viability, T/C: 107%
Second compound 0.0316 µM, first compound 0.01 µM
  viability, T/C: 98.3%
[1]
  viability, T/C: 102%
[2]
  viability, T/C: 95.5%
[3]
  viability, T/C: 81.2%
[4]
  viability, T/C: 16.6%
Second compound 0.1 µM, first compound 0.00316 µM
  viability, T/C: 99.7%
Second compound 0.1 µM, first compound 0.01 µM
  viability, T/C: 104%
[5]
  viability, T/C: 102%
[6]
  viability, T/C: 103%
[7]
  viability, T/C: 76.1%
[8]
  viability, T/C: 17.3%
Second compound 0.316 µM, first compound 0.00316 µM
  viability, T/C: 102%
Second compound 0.316 µM, first compound 0.01 µM
  viability, T/C: 104%
[9]
  viability, T/C: 104%
[10]
  viability, T/C: 103%
[11]
  viability, T/C: 74.7%
[12]
  viability, T/C: 20.5%
Second compound 1 µM, first compound 0.00316 µM
  viability, T/C: 112%
Second compound 1 µM, first compound 0.01 µM
  viability, T/C: 101%
[13]
  viability, T/C: 105%
[14]
  viability, T/C: 104%
[15]
  viability, T/C: 79.2%
[16]
  viability, T/C: 18.2%
Second compound 3.16 µM, first compound 0.00316 µM
  viability, T/C: 104%
Second compound 3.16 µM, first compound 0.01 µM
  viability, T/C: 106%
[17]
  viability, T/C: 111%
[18]
  viability, T/C: 110%
[19]
  viability, T/C: 86.8%
[20]
  viability, T/C: 19.8%
Second compound 10 µM, first compound 0.00316 µM
  viability, T/C: 101%
Second compound 10 µM, first compound 0.01 µM
  viability, T/C: 98.8%
[21]
  viability, T/C: 99.5%
[22]
  viability, T/C: 105%
[23]
  viability, T/C: 82.9%
[24]
  viability, T/C: 18.8%

## COc1cc2cc(C(=O)CCC(=O)O)sc2cc1OC + Cc1cccc(N(C)C(=O)C2C(O)CCN2c2nc(C)cc(C(F)(F)F)c2C#N)c1
Second compound 0.0316 µM
  IC50: > 10 µM
Second compound 0.1 µM
  IC50: > 10 µM
Second compound 0.316 µM
  IC50: > 10 µM
Second compound 1 µM
  IC50: > 10 µM
Second compound 3.16 µM
  IC50: > 10 µM
Second compound 10 µM
  IC50: > 10 µM
[1]
  viability, T/C: 103%
[2]
  viability, T/C: 107%
[3]
  viability, T/C: 107%
[4]
  viability, T/C: 102%
[25]
  viability, T/C: 106%
[26]
  viability, T/C: 97%
[5]
  viability, T/C: 105%
[6]
  viability, T/C: 98.1%
[7]
  viability, T/C: 95.7%
[8]
  viability, T/C: 98%
[27]
  viability, T/C: 92.6%
[28]
  viability, T/C: 88.7%
[9]
  viability, T/C: 93.8%
[10]
  viability, T/C: 104%
[11]
  viability, T/C: 96.2%
[12]
  viability, T/C: 110%
[29]
  viability, T/C: 109%
[30]
  viability, T/C: 93.7%
[13]
  viability, T/C: 105%
[14]
  viability, T/C: 102%
[15]
  viability, T/C: 99%
[16]
  viability, T/C: 102%
[31]
  viability, T/C: 105%
[32]
  viability, T/C: 93.7%
[17]
  viability, T/C: 103%
[18]
  viability, T/C: 97.9%
[19]
  viability, T/C: 96.5%
[20]
  viability, T/C: 100%
[33]
  viability, T/C: 98.9%
[34]
  viability, T/C: 95.5%
[21]
  viability, T/C: 97.7%
[22]
  viability, T/C: 98.8%
[23]
  viability, T/C: 94%
[24]
  viability, T/C: 111%
[35]
  viability, T/C: 102%
[36]
  viability, T/C: 90.8%

## O=c1[nH]cc(F)c(=O)[nH]1 + COC1C(OC(N)=O)C(O)C(Oc2ccc3c(O)c(NC(=O)c4ccc(O)c(CC=C(C)C)c4)c(=O)oc3c2C)OC1(C)C
Second compound 0.0316 µM
  IC50: 4.11 µM
Second compound 0.1 µM
  IC50: 4.8 µM
Second compound 0.316 µM
  IC50: 4.27 µM
Second compound 1 µM
  IC50: 4.01 µM
Second compound 3.16 µM
  IC50: 5.63 µM
Second compound 10 µM
  IC50: 3.27 µM
[1]
  viability, T/C: 104%
[2]
  viability, T/C: 104%
[3]
  viability, T/C: 110%
[4]
  viability, T/C: 100%
[25]
  viability, T/C: 55.6%
[26]
  viability, T/C: 31.2%
[5]
  viability, T/C: 105%
[6]
  viability, T/C: 108%
[7]
  viability, T/C: 106%
[8]
  viability, T/C: 98%
[27]
  viability, T/C: 60.6%
[28]
  viability, T/C: 31.4%
[9]
  viability, T/C: 112%
[10]
  viability, T/C: 108%
[11]
  viability, T/C: 108%
[12]
  viability, T/C: 96.9%
[29]
  viability, T/C: 55.2%
[30]
  viability, T/C: 34.9%
[13]
  viability, T/C: 112%
[14]
  viability, T/C: 111%
[15]
  viability, T/C: 110%
[16]
  viability, T/C: 96.4%
[31]
  viability, T/C: 53.9%
[32]
  viability, T/C: 35.1%
[17]
  viability, T/C: 112%
[18]
  viability, T/C: 118%
[19]
  viability, T/C: 113%
[20]
  viability, T/C: 97.6%
[33]
  viability, T/C: 63.4%
[34]
  viability, T/C: 36.9%
[21]
  viability, T/C: 111%
[22]
  viability, T/C: 108%
[23]
  viability, T/C: 109%
[24]
  viability, T/C: 100%
[35]
  viability, T/C: 50.6%
[36]
  viability, T/C: 31.3%
